Data as given in PMC9585728, “Antiviral activity and mechanism of the antifungal drug, anidulafungin, suggesting its potential to promote treatment of viral diseases” (BMC Medicine, 2022).
Values joined by “and” are separate entries in the source; they are usually repeats but may differ in a detail not shown here. Identical values can stand only once. “Also recorded” adds a separate entry of the source. Starred links: 1 amine or outer side, 2 acyl side, 3 side chain; linkers in the order of their positions; H or OH if unused. Positions of bridges follow the written chain, without caps; N, C: chain ends. Non-standard residues stand in square brackets, D forms with d. Residues, ends and D or L forms follow the SMILES beside them. *: point of attachment. hTyr(3S-OH,4S-OH,3'-OSO3H) = N[C@H](C(=O)O)[C@H](O)[C@@H](O)c1ccc(O)c(OS(=O)(=O)O)c1; pTerphenylCO(4''-OnC5H11) = CCCCCOc1ccc(-c2ccc(-c3ccc(C(=O)*)cc3)cc2)cc1; Orn(4R-OH,5R-OH) = O=C([C@H](C[C@@H](O)[C@@H](O)N[*:3])N[*:1])[*:2]; hTyr(3S-OH,4S-OH) = N[C@H](C(=O)O)[C@H](O)[C@@H](O)c1ccc(O)cc1; Pro(3S-OH,4S-Me) = C[C@H]1CN[C@H](C(=O)O)[C@H]1O; X1 = CCCCCOc1ccc(-c2cc(-c3ccc(C(=O)*)cc3)no2)cc1; Gln(3R-OH) = NC(=O)C[C@@H](O)[C@H](N)C(=O)O; Hyp = O=C(O)[C@@H]1C[C@@H](O)CN1

Key:
SFTSV [1] = experiment: microbe, parasite or virus in culture; format: cell-based, severe fever with thrombocytopenia syndrome virus
in vitro = details: African green monkey
SFTSV [2] = experiment: microbe, parasite or virus in culture; format: cell-based, severe fever with thrombocytopenia syndrome virus; details: for IC50 / IC90: Severe fever with thrombocytopenia syndrome virus, Vero, 24 h
SFTSV [3] = format: cell-based, severe fever with thrombocytopenia syndrome virus
SFTSV [4] = format: cell-based, severe fever with thrombocytopenia syndrome virus; remark: listed apart in the source
CCHFV = experiment: microbe, parasite or virus in culture; format: cell-based, Crimean-Congo hemorrhagic fever virus
HSV-1 = experiment: microbe, parasite or virus in culture; format: cell-based, herpes simplex virus 1
SFTSV [5] = format: cell-based, severe fever with thrombocytopenia syndrome virus; remark: listed apart in the source
SFTSV [6] = format: cell-based, severe fever with thrombocytopenia syndrome virus; details: pH 5
HRTV = experiment: microbe, parasite or virus in culture; format: cell-based, Heartland virus
DENV = details: inhibition of DENV infection; cited from earlier work
GTV = experiment: microbe, parasite or virus in culture; format: cell-based, Guertu virus
SFTSV [7] = tested on: SFTSV; parameters: species or system A129 mice; details: mouse, in vivo
SFTSV [8] = format: cell-based, severe fever with thrombocytopenia syndrome virus; remark: listed apart in the source
SARS-CoV-2 = experiment: microbe, parasite or virus in culture; format: cell-based, severe acute respiratory syndrome coronavirus 2
ZIKV = experiment: microbe, parasite or virus in culture; format: cell-based, Zika virus
[9] = Orthonairovirus haemorrhagiae, Vero
[10] = Severe acute respiratory syndrome coronavirus 2, Vero

SMILES: Oc1ccc2ccccc2c1SSc1c(O)ccc2ccccc12 [IPA3, p21-activated kinase inhibitor III]
- mean inhibition rate of SFTSV infection (SFTSV [1]): 43.22%

SMILES: COc1cccc(-c2ccc(NC(=O)C3=C(C(=O)O)CCC3)c(F)c2)c1 [Vidofludimus]
- CC50 (in vitro): > 100 µM
- SI (SFTSV [2]): >10
- IC50 (SFTSV [2]): 6.07 µM
- IC90 (SFTSV [2]): 14.6 µM

SMILES: COc1c(C)c2c(c(O)c1C/C=C(\C)CCC(=O)OCCN1CCOCC1)C(=O)OC2 [Mycophenolate mofetil]
- CC50 (in vitro): > 100 µM
- SI (SFTSV [2]): >10
- IC50 (SFTSV [2]): 0.57 µM
- IC90 (SFTSV [2]): 1.52 µM

SMILES: CN(C)CCCN1c2ccccc2Sc2ccc(Cl)cc21 [CPZ, chlorpromazine]
- inhibition at 35 µM (SFTSV [1]; Severe fever with thrombocytopenia syndrome virus, Vero, read-out: mean inhibition rate of SFTSV infection): 46.1%

SMILES: C[C@@H]1[C@H](O)[C@@H](C)/C=C/C=C/CC/C=C/C=C/C=C/C=C/C(O[C@H]2O[C@H](C)[C@@H](O)[C@H](N)[C@@H]2O)CC2O[C@](O)(CC(O)C(O)CCC(O)CC(O)CC(O)CC(=O)O[C@H]1C)CC(O)C2C(=O)O (some centres unmarked) [nystatin]
- mean inhibition rate of SFTSV infection (SFTSV [1]): 8.67%

SMILES: CCCCCOc1ccc(-c2ccc(-c3ccc(C(=O)N[C@H]4C[C@@H](O)[C@@H](O)NC(=O)[C@@H]5[C@@H](O)[C@@H](C)CN5C(=O)[C@H]([C@@H](C)O)NC(=O)[C@H]([C@H](O)[C@@H](O)c5ccc(O)cc5)NC(=O)[C@@H]5C[C@@H](O)CN5C(=O)[C@H]([C@@H](C)O)NC4=O)cc3)cc2)cc1 [Anidulafungin, anidulafungin] ({pTerphenylCO(4''-OnC5H11)}-[Orn(4R-OH,5R-OH)]T[Hyp][hTyr(3S-OH,4S-OH)]T[Pro(3S-OH,4S-Me)]; lactam 1-C)
- CC50 (in vitro): 41.7 µM
- reduction of intracellular viral RNA copies relative to the control (SFTSV [3]): over 10 times
- suppression of the entry of SFTSV strain HBMC5 (SFTSV [4]): as efficiently as the strain WCH
- SI (CCHFV): 3.86
- IC50 (CCHFV; [9]): 10.8 µM
- IC90 (CCHFV; [9]): 24.2 µM
- SI (HSV-1): 6.12
- IC50 (HSV-1; Human alphaherpesvirus 1, Vero): 6.81 µM
- IC90 (HSV-1; Human alphaherpesvirus 1, Vero): 9.12 µM
- number of intracellular viral RNA copies (virus internalization) (SFTSV [5]): significantly decreased
- number and size of syncytia (fusion ability) (SFTSV [6]): decreased
- SI (SFTSV [2]): 13.80
- IC50 (SFTSV [2]): 3.02 µM
- IC90 (SFTSV [2]): 12.4 µM
- SI (HRTV): 8.35
- IC50 (HRTV; Heartland virus, Vero): 4.99 µM
- IC90 (HRTV; Heartland virus, Vero): 9.29 µM
- IC50 (DENV): 3.24 µM
- SI (GTV): 7.53
- IC50 (GTV; Guertu virus, Vero): 5.54 µM
- IC90 (GTV; Guertu virus, Vero): 9.62 µM
- PLT (median, IQR) (SFTSV [7]): 1054.5 (993.25, 1094) ×10^9/L and 950 (494.5, 1062.75) ×10^9/L and 1141 (1050, 1191) ×10^9/L
- WBC (median, IQR) (SFTSV [7]): 4.75 (4.35, 5.465) ×10^9/L and 4.72 (4.31, 6.195) ×10^9/L and 5.76 (5.28, 6.04) ×10^9/L
- body weight (SFTSV [7]): maintained; also recorded: slight decrease
- clinical signs of illness onset (SFTSV [7]): did not show typical clinical signs of illness onset
- histopathological damage in the lung, H&E (SFTSV [7]): significantly ameliorated
- kidney lesions (renal tubulointerstitial hemorrhaging, edemas), H&E (SFTSV [7]): slight
- liver lesion (ballooning degeneration of hepatocytes), H&E (SFTSV [7]): significantly attenuated
- survival rate (SFTSV [7]): 66.7% and 50.0%
- efficacy of virus binding to cells versus vehicle (SFTSV [8]): did not have a significant difference
- SI (SARS-CoV-2): 7.59
- IC50 (SARS-CoV-2; [10]): 5.49 µM
- IC90 (SARS-CoV-2; [10]): 8.55 µM
- SI (ZIKV): 9.54
- IC50 (ZIKV; Zika virus, Vero): 4.37 µM
- IC90 (ZIKV; Zika virus, Vero): 6.44 µM

SMILES: CC[C@H](C)C[C@H](C)CCCCCCCCC(=O)N[C@H]1C[C@@H](O)[C@@H](NCCN)NC(=O)[C@@H]2[C@@H](O)CCN2C(=O)[C@H]([C@H](O)CCN)NC(=O)[C@H]([C@H](O)[C@@H](O)c2ccc(O)cc2)NC(=O)[C@@H]2C[C@@H](O)CN2C(=O)[C@H]([C@@H](C)O)NC1=O [caspofungin]
- inhibitory effect on SFTSV infection during the entry process (SFTSV [4]): limited effect
- IC50 (DENV): 20.8 µM

SMILES: CC(=O)Oc1ccccc1C(=O)Nc1ncc([N+](=O)[O-])s1 [Nitazoxanide]
- CC50 (in vitro): > 100 µM
- IC50 (SFTSV [2]): 11.1 µM
- IC90 (SFTSV [2]): 25.3 µM

SMILES: CCCCCOc1ccc(-c2cc(-c3ccc(C(=O)N[C@H]4C[C@@H](O)[C@@H](O)NC(=O)[C@@H]5[C@@H](O)[C@@H](C)CN5C(=O)[C@H]([C@H](O)CC(N)=O)NC(=O)[C@H]([C@H](O)[C@@H](O)c5ccc(O)c(OS(=O)(=O)O)c5)NC(=O)[C@@H]5C[C@@H](O)CN5C(=O)[C@H]([C@@H](C)O)NC4=O)cc3)no2)cc1 [Micafungin, micafungin] (X1-[Orn(4R-OH,5R-OH)]T[Hyp][hTyr(3S-OH,4S-OH,3'-OSO3H)][Gln(3R-OH)][Pro(3S-OH,4S-Me)]; lactam 1-C)
- inhibitory effect on SFTSV infection during the entry process (SFTSV [4]): less effective than that exerted by anidulafungin
- IC50 (DENV): 10.2 µM

SMILES: O=C1C(O)=C([C@H]2CC[C@H](c3ccc(Cl)cc3)CC2)C(=O)c2ccccc21 [Atovaqone, Atovaquone]
- CC50 (in vitro): > 100 µM
- SI (SFTSV [2]): >10
- IC50 (SFTSV [2]): 5.06 µM
- IC90 (SFTSV [2]): 10.1 µM

SMILES: COc1c(C)c2c(c(O)c1C/C=C(\C)CCC(=O)O)C(=O)OC2 [Mycophenolic acid]
- CC50 (in vitro): > 100 µM
- SI (SFTSV [2]): >10
- IC50 (SFTSV [2]): 0.47 µM
- IC90 (SFTSV [2]): 4.75 µM
